Source: PubChem BioAssay (NCI)
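Protocol summary: plate cells (96-well), add compound at 5 concentrations, incubate 48 h, interpolate endpoints linearly. The concentration for 50% growth inhibition is given as GI50. TGI: concentration producing complete growth inhibition.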

How the values were obtained:
Experiment in all cases: NCI-60 cell line screen, 48 h
SK-MEL-5 melanoma = test system: SK-MEL-5 melanoma
OVCAR-3 ovarian = test system: OVCAR-3 ovarian
NCI-H460 lung = test system: NCI-H460 lung
MCF7 breast = test system: MCF7 breast
KM12 colon = test system: KM12 colon
OVCAR-5 ovarian = test system: OVCAR-5 ovarian
UACC-62 melanoma = test system: UACC-62 melanoma
PC-3 prostate = test system: PC-3 prostate
TK-10 renal = test system: TK-10 renal
SW-620 colon = test system: SW-620 colon
MALME-3M melanoma = test system: MALME-3M melanoma
HOP-62 NSCLC = test system: HOP-62 NSCLC
HCT-116 colon = test system: HCT-116 colon
M14 melanoma = test system: M14 melanoma
SK-OV-3 ovarian = test system: SK-OV-3 ovarian
786-0 renal = test system: 786-0 renal
MDA-MB-231 breast = test system: MDA-MB-231 breast
UO-31 renal = test system: UO-31 renal
SF-268 CNS = test system: SF-268 CNS
UACC-257 melanoma = test system: UACC-257 melanoma
SF-295 CNS = test system: SF-295 CNS
RPMI-8226 leukemia = test system: RPMI-8226 leukemia
CAKI-1 renal = test system: CAKI-1 renal
U251 CNS = test system: U251 CNS
NCI-H226 lung = test system: NCI-H226 lung
CCRF-CEM leukemia = test system: CCRF-CEM leukemia
SK-MEL-2 melanoma = test system: SK-MEL-2 melanoma
MDA-MB-435 = test system: MDA-MB-435
OVCAR-8 ovarian = test system: OVCAR-8 ovarian
BT-549 breast = test system: BT-549 breast
SN12C renal = test system: SN12C renal
SF-539 CNS = test system: SF-539 CNS
ACHN renal = test system: ACHN renal
SK-MEL-28 melanoma = test system: SK-MEL-28 melanoma
NCI-H23 lung = test system: NCI-H23 lung

## c1ccc(CSCCNCCN(CCNCCSCc2ccccc2)CCNCCSCc2ccccc2)cc1
SK-MEL-5 melanoma
  GI50: 1720 nM
  TGI: 3120 nM
OVCAR-3 ovarian
  GI50: 4230 nM
  TGI: 18300 nM
NCI-H460 lung
  GI50: 1370 nM
  TGI: 2710 nM
MCF7 breast
  GI50: 363 nM
  TGI: 803 nM
KM12 colon
  GI50: 1100 nM
  TGI: 2410 nM
OVCAR-5 ovarian
  GI50: 1760 nM
  TGI: 3190 nM
UACC-62 melanoma
  GI50: 1770 nM
  TGI: 3160 nM
PC-3 prostate
  GI50: 1660 nM
  TGI: 3210 nM
TK-10 renal
  GI50: 1590 nM
  TGI: 2940 nM
SW-620 colon
  GI50: 1780 nM
  TGI: 3210 nM
MALME-3M melanoma
  GI50: 1840 nM
  TGI: 3410 nM
HOP-62 NSCLC
  GI50: 1490 nM
  TGI: 2830 nM
HCT-116 colon
  GI50: 183 nM
  TGI: 340 nM
M14 melanoma
  GI50: 1310 nM
  TGI: 2650 nM
SK-OV-3 ovarian
  GI50: 1940 nM
  TGI: 3430 nM
786-0 renal
  GI50: 1530 nM
  TGI: 2940 nM
MDA-MB-231 breast
  GI50: 1560 nM
  TGI: 2940 nM
UO-31 renal
  GI50: 1780 nM
  TGI: 3230 nM
SF-268 CNS
  GI50: 1530 nM
  TGI: 2960 nM
UACC-257 melanoma
  GI50: 1770 nM
  TGI: 3310 nM
SF-295 CNS
  GI50: 4170 nM
  TGI: 20500 nM
RPMI-8226 leukemia
  GI50: 337 nM
  TGI: 1030 nM
CAKI-1 renal
  GI50: 3350 nM
  TGI: 14300 nM
U251 CNS
  GI50: 1520 nM
  TGI: 2850 nM
NCI-H226 lung
  GI50: 1780 nM
  TGI: 3280 nM
CCRF-CEM leukemia
  GI50: 1540 nM
  TGI: 3060 nM
SK-MEL-2 melanoma
  GI50: 1600 nM
  TGI: 3110 nM
MDA-MB-435
  GI50: 5370 nM
  TGI: 18900 nM
OVCAR-8 ovarian
  GI50: 1570 nM
  TGI: 3020 nM
BT-549 breast
  GI50: 1800 nM
  TGI: 3220 nM
SN12C renal
  GI50: 1440 nM
  TGI: 2770 nM
SF-539 CNS
  GI50: 2140 nM
  TGI: 3580 nM

## CC(=O)O[C@H]1CC[C@]2(C)[C@H]3CC=C4[C@@H]5CC(C)(C)CC[C@]5(C(=O)NCCNCCNCCN)CC[C@@]4(C)[C@]3(C)CC[C@H]2C1(C)C
OVCAR-3 ovarian
  GI50: 1760 nM
  TGI: 3240 nM
OVCAR-5 ovarian
  GI50: 1670 nM
  TGI: 3130 nM
ACHN renal
  GI50: 1750 nM
  TGI: 3140 nM
UACC-62 melanoma
  GI50: 1740 nM
  TGI: 3180 nM
SK-MEL-28 melanoma
  GI50: 1740 nM
  TGI: 3210 nM
MDA-MB-231 breast
  GI50: 1530 nM
  TGI: 3040 nM
NCI-H226 lung
  GI50: 2180 nM
  TGI: 4990 nM
NCI-H23 lung
  GI50: 1800 nM
  TGI: 3570 nM
MDA-MB-435
  GI50: 1670 nM
  TGI: 3100 nM
SN12C renal
  GI50: 1780 nM
  TGI: 3370 nM
SF-539 CNS
  GI50: 1690 nM
  TGI: 3170 nM
